Source: publication PMC11996864, “A small-molecule inhibitor of BCL10-MALT1 interaction abrogates progression of diffuse large B cell lymphoma” (The Journal of Clinical Investigation, 2025)
Several values for one entry are separate records, joined by “and”; a condition that tells them apart may be missing. Equal values may be shown once.

How the values were obtained:
Assay type in all cases: cell-based, human
[1] = tested on: RelB cleavage in Jurkat T cells; assay: CD3/CD28-induced RelB cleavage, Western blot (MALT1 protease activity); settings: for RelB cleavage in stimulated Jurkat T cells: result in words
Description: (§1) Western blot analysis of RelB and N4BP1 cleavage was used to test the effect of small molecules on MALT1 protease activity. To this end, 3 million Jurkat T cells were pretreated with compounds for 24 hours in serum-free media, and then 5 μM MG-132 was added for 1 hour before stimulation with CD3/CD28 (Stemcell Technologies, catalog 10971), and lysed in RIPA buffer (Millipore, catalog 20-188) with protease and phosphatase inhibitor cocktail (Pierce, catalog 78446). IKKα/β phosphorylation and IκBα phosphorylation were used as measures of MALT1 scaffolding activity, while ERK1/2 phosphorylation was used as a control. Two million Jurkat T cells were treated with 1 μM M1i-124, 1 μM M1i-124d1, or DMSO in serum-free media for 16 hours, stimulated with CD3/CD28 for 0, 5, 10, or 20 minutes, and then immediately lysed in RIPA buffer with protease and phosphatase inhibitors. For experiments evaluating RelB cleavage and phosphorylation of IκBα in TMD8 cells, cells were treated with compounds for 24 hours in media containing 5% FBS. For RelB Western blot analysis, 5 μM MG-132 (Cell Signaling Technology, catalog 2194s) was added 4 hours before lysis in RIPA lysis buffer with protease/phosphatase inhibitors.

[2] = tested on: IL-2 secretion from Jurkat T cells; assay: Secreted IL-2 ELISA after PMA/Iono; settings: for IL-2: PMA/Iono; for IL-2 secretion from Jurkat T cells: result in words
Description: Cytokine ELISAs. Cytokines in cell culture supernatants were measured 20-24h after treatment with 0, 0.01, 0.03, 0.1, 0.3, 1, or 3 µM of compounds using the following ELISA kits according to the manufacturer’s instructions: Human IL-2 ELISA (BioLegend Cat# 431804), Human IL-6 ELISA (BioLegend Cat# 430504), and Human IL-10 ELISA (BioLegend Cat# 430604). […]
Jurkat T cells were pretreated with specific doses of compounds for 8 hours in serum-free media, then stimulated with PMA/ionomycin for 16 hours prior to the collection of supernatants. […]

[3] = tested on: N4BP1 cleavage in Jurkat T cells; assay: CD3/CD28-induced N4BP1 cleavage, Western blot (MALT1 protease activity); settings: for N4BP1 cleavage ratio: Jurkat T cells, 1 μM pretreatment, + CD3/CD28; for N4BP1 cleavage in stimulated Jurkat T cells: result in words
Description: as §1

[4] = tested on: IL2 mRNA in Jurkat T cells; assay: IL2 mRNA induction by PMA/Iono, qRT-PCR; settings: for IL2 mRNA (normalized): Jurkat, + PMA/Iono; for PMA/Iono-induced IL2 gene expression: pretreatment 4 hours, result in words
Description: qRT-PCR. Jurkat T cells grown in serum free media for 4 hours with indicated inhibitors prior to stimulation with PMA/Ionomycin for 4 hours. […]
Total RNA extraction from the […]
Kit. RNA was transcribed into cDNA using High-Capacity cDNA Reverse Transcription Kit (Applied Biosystems, Cat# 4368814) according to manufacturer’s instructions. RT-PCR was performed using TaqMan Universal PCR Master Mix (Applied Biosystems, Cat# 4304437) and run on a StepOnePlus Real-Time PCR machine (Applied Biosystems). The following probes from ThermoFisher Scientific were used for qRT-PCR: IL2 TaqMan probe Hs00174114, IL6 TaqMan

OCI-Ly7 cells = assay: Cell proliferation, trypan blue cell count; settings: for Viable cell count: second block headed OCI-Ly1, Day 0, Mepazine at 1 µM; for expansion of culture (proliferation): OCI-Ly7, single 1 μM dose, 12 days, result in words
Description: (§2) Cell proliferation, viability, and apoptosis assays. Starting with ~20,000 DLBCL cells in 5% FBS
(§3) at day 0, cell number was counted using the trypan blue dye exclusion method with Vi-CELL cell

OCI-Ly1 cells = assay: Cell proliferation, trypan blue cell count; settings: for OCI-Ly1 Viable Cells: Mepazine at 1 µM; for expansion of culture (proliferation): OCI-Ly1, single 1 μM dose, 12 days, result in words
Description: as §2, §3

TMD8 cells = assay: Cell proliferation, trypan blue cell count; settings: for TMD8 Viable Cells: Mepazine at 1 µM; for expansion of culture (proliferation): TMD8, single 1 μM dose, 12 days, result in words
Description: as §2, §3

OCI-Ly3 cells = assay: Cell proliferation, trypan blue cell count; settings: Mepazine at 1 µM
[5] = tested on: BCL10 and MALT1 protein in OCI-Ly3 cells; assay: BCL10 and MALT1 protein levels, Western blot; settings: OCI-Ly3, 1 μM, 72 hours, result in words
Description: (§4) To test the possibility that M1i-124 destabilizes BCL10 and MALT1 within the cell as a consequence of disrupting BCL10-MALT1 interaction, we treated ABC-DLBCL cell lines (TMD8, OCI-Ly3) with M1i-124 for 72 hours and measured the cellular levels of the BCL10 and MALT1 proteins by Western blotting.
(§5) Figure 5 M1i-124 treatment leads to loss of BCL10 and MALT1 protein content in ABC-DLBCL cells. (A) Representative Western blots showing loss of BCL10 and MALT1 proteins, but not ERK1/2 protein, in TMD8 and OCI-Ly3 cells after 72 hours of treatment with 1 μM M1i-124. […] (B) Representative Western blots showing time-dependent loss of BCL10 and MALT1 in TMD8 cells treated with 1 μM M1i-124. (C) Representative Western blots showing dose-dependent loss of BCL10 and MALT1 proteins in TMD8 cells treated with […]. For A–C, band quantifications, normalized for GAPDH, are indicated below each blot. (D) Time-dependent change in BCL10 and MALT1 mRNA expression levels with 1 μM M1i-124 treatment in TMD8 cells. Statistical analysis was performed using unpaired t test between 0 hours and 72 hours (mean ± SEM; n = 3). *P < 0.05, ****P < 0.0001.

[6] = tested on: BCL10 and MALT1 protein in TMD8 cells; assay: BCL10 and MALT1 protein levels, Western blot; settings: 72 hours, result in words; for BCL10 and MALT1 protein levels: TMD8, 1 μM
Description: as §4, §5

Compound | N4BP1 cleavage ratio [3] | Viable cell count (OCI-Ly7 cells) | OCI-Ly1 Viable Cells (OCI-Ly1 cells; Day 0) | TMD8 Viable Cells (TMD8 cells; Day 0) | OCI-Ly3 Viable Cells (OCI-Ly3 cells; Day 0) | BCL10 and MALT1 protein levels [5] | BCL10 and MALT1 protein levels [6] | RelB cleavage in stimulated Jurkat T cells [1] | IL-2 ([2]; Jurkat, 0.01uM) | IL-2 ([2]; Jurkat, 0.03uM) | IL-2 ([2]; Jurkat, 0.1uM) | IL-2 ([2]; Jurkat, 0.3uM) | IL-2 ([2]; Jurkat, 1uM) | IL-2 ([2]; Jurkat, 3uM) | IL-2 secretion from Jurkat T cells [2] | N4BP1 cleavage in stimulated Jurkat T cells [3] | IL2 mRNA (normalized) ([4]; 1 μM) | PMA/Iono-induced IL2 gene expression [4] | expansion of culture (proliferation) (OCI-Ly7 cells) | expansion of culture (proliferation) (OCI-Ly1 cells) | further results
CN1CCCC(CN2c3ccccc3Sc3ccccc32)C1 (centres unmarked) [Mepazine, mepazine, reference compound] | 1.53 and 0.8223 and 0.868 and 0.8072 | 20000 | 40000 and 20000 | 20000 | 20000 | not observed | not observed |  |  |  |  |  |  |  |  |  |  |  |  |  | Cl-RelB/FL-RelB ratio ([1]; Jurkat T cells, 1 μM pretreatment, + CD3/CD28): 0.1288 and 0.1917 and 0.1562 and 0.1166; activity at 1 µM ([2]; Homo sapiens, Jurkat, PMA/Iono treated, 1 uM, Suppl Fig. 4A, read-out: IL-2 protein level (% of control)): 67.8%; IL-2 protein level (% of control) ([2]; PMA/Iono treated, 1 uM, Suppl Fig. 4A): 72.9318 % of control and 62.9989 % of control; IL2 mRNA (normalized) ([4]; 5 μM): 0.1528 and 0.1464 and 0.1468; OCI-Ly1 Viable Cells (OCI-Ly1 cells; Day 7): 99000 and 98000 and 71000; OCI-Ly1 Viable Cells (OCI-Ly1 cells; Day 10): 280000 and 250000 and 290000; TMD8 Viable Cells (TMD8 cells; Day 12): 830000 and 460000 and 590000
O=S(=O)(NCc1ccc2c(c1)OCO2)c1ccc(Cc2ccc(S(=O)(=O)NCc3ccc4c(c3)OCO4)cc2)cc1 [M1i-124] |  | 20000 and 40000 | 40000 and 20000 | 20000 | 20000 | potently induced the loss of both MALT1 and BCL10 proteins | potently induced the loss of both MALT1 and BCL10 proteins | suppressed the cleavage | 670.787 pg/mL and 749.967 pg/mL and 766.89 pg/mL | 564.302 pg/mL and 507.452 pg/mL and 318.494 pg/mL | 327.873 pg/mL and 411.405 pg/mL and 266.705 pg/mL | 173.693 pg/mL and 247.879 pg/mL and 193.913 pg/mL | 222.117 pg/mL and 210.011 pg/mL and 120.037 pg/mL | 304.615 pg/mL and 288.86 pg/mL and 235.369 pg/mL | dose-dependent reduction in IL-2 secretion | suppressed the cleavage | 0.1638 and 0.218 and 0.2454 | reduction in PMA/Iono–induced IL2 gene expression | no effect on expansion | no effect on expansion | IL-2 protein level (% of control) ([2]; PMA/Iono treated, Suppl Fig. 4A): 34.6066 % of control and 35.497 % of control and 25.5648 % of control; OCI-Ly1 Viable Cells (OCI-Ly1 cells; Day 12): 590000 and 720000 and 910000 and 860000 and 880000 and 890000; expansion of culture (proliferation) (TMD8 cells): significant reduction in the expansion; ERK1/2 protein levels ([6]; 1 μM): no change
COc1ccc(CNS(=O)(=O)c2ccc(Cc3ccc(S(=O)(=O)NCc4ccc(OC)cc4)cc3)cc2)cc1 [M1i-124d1] | 0.7459 and 0.3808 and 0.4872 and 0.5302 | 20000 and 40000 | 40000 and 20000 | 20000 | 20000 | lesser effect | lesser effect | suppressed the cleavage | 893.077 pg/mL and 1049.97 pg/mL and 735.049 pg/mL | 736.84 pg/mL and 714.598 pg/mL and 588.162 pg/mL | 433.515 pg/mL and 416.061 pg/mL and 330.961 pg/mL | 349.469 pg/mL and 340.243 pg/mL and 270.034 pg/mL | 458.584 pg/mL and 443.361 pg/mL and 398.637 pg/mL | 550.731 pg/mL and 484.757 pg/mL and 435.445 pg/mL | dose-dependent reduction in IL-2 secretion | suppressed the cleavage | 0.5238 and 0.3763 and 0.462 | reduction in PMA/Iono–induced IL2 gene expression | no effect on expansion | no effect on expansion | expansion of culture (proliferation) (TMD8 cells): significant reduction in the expansion; OCI-Ly3 Viable Cells (OCI-Ly3 cells; Day 12): 340000 and 290000 and 320000
